Test results published in the NIST ThermoML archive (doi:10.1021/je7006549).
Numbers after ± are expanded uncertainties.

Key:
[1] = 101 kPa, Liquid
[2] = mn = molality of the nth substance listed, in mol/kg; conditions: 101 kPa, Liquid, m2 = 0

Compound	mass density ([1]; 303.15 K) [kg/m3]	viscosity ([1]; 303.15 K) [mPa·s]	mass density ([1]; 308.15 K) [kg/m3]	viscosity ([1]; 308.15 K) [mPa·s]	mass density ([1]; 313.15 K) [kg/m3]	viscosity ([1]; 313.15 K) [mPa·s]	mass density ([1]; 318.15 K) [kg/m3]	viscosity ([1]; 318.15 K) [mPa·s]	mass density ([1]; 323.15 K) [kg/m3]	viscosity ([1]; 323.15 K) [mPa·s]	mass density ([1]; 328.15 K) [kg/m3]	viscosity ([1]; 328.15 K) [mPa·s]	mass density ([1]; 333.15 K) [kg/m3]	viscosity ([1]; 333.15 K) [mPa·s]	mass density ([2]; 303.15 K) [kg/m3]	viscosity ([2]; 303.15 K) [mPa·s]	mass density ([2]; 308.15 K) [kg/m3]	viscosity ([2]; 308.15 K) [mPa·s]	mass density ([2]; 313.15 K) [kg/m3]	viscosity ([2]; 313.15 K) [mPa·s]	other results
c1ccccc1 [benzene]	868 ± 0.7	0.564 ± 0.0093	862.2 ± 0.8	0.5232 ± 0.009	857 ± 0.8	0.5001 ± 0.0088	851.6 ± 0.8	0.4714 ± 0.0086	846.3 ± 0.8	0.4397 ± 0.0084	840.7 ± 0.9	0.4145 ± 0.0082	835.4 ± 0.9	0.3932 ± 0.0081							
c1ccccc1 [benzene] + CC1=CC(=O)c2ccccc2C1=O															868 ± 0.7	0.564 ± 0.0093	862.2 ± 0.8	0.5232 ± 0.009	857 ± 0.8	0.5001 ± 0.0088	mass density ([2]; 318.15 K): 851.6 ± 0.8 kg/m3; viscosity ([2]; 318.15 K): 0.4714 ± 0.0086 mPa·s; mass density ([2]; 323.15 K): 846.3 ± 0.8 kg/m3; viscosity ([2]; 323.15 K): 0.4397 ± 0.0084 mPa·s; mass density ([2]; 328.15 K): 840.7 ± 0.9 kg/m3; viscosity ([2]; 328.15 K): 0.4145 ± 0.0082 mPa·s; mass density ([2]; 333.15 K): 835.4 ± 0.9 kg/m3; viscosity ([2]; 333.15 K): 0.3932 ± 0.0081 mPa·s
CCc1ccccc1 [ethylbenzene]	858 ± 0.7	0.5986 ± 0.0095	853.5 ± 0.7	0.5691 ± 0.0093	849.5 ± 0.8	0.5372 ± 0.009	844.7 ± 0.8	0.506 ± 0.0088	840.5 ± 0.8	0.4805 ± 0.0086	835.9 ± 0.8	0.4566 ± 0.0085	831.6 ± 0.9	0.4371 ± 0.0083							
CCc1ccccc1 [ethylbenzene] + CC1=CC(=O)c2ccccc2C1=O															858 ± 0.7	0.5986 ± 0.0095	853.5 ± 0.7	0.5691 ± 0.0093	849.5 ± 0.8	0.5372 ± 0.009	mass density ([2]; 318.15 K): 844.7 ± 0.8 kg/m3; viscosity ([2]; 318.15 K): 0.506 ± 0.0088 mPa·s; mass density ([2]; 323.15 K): 840.5 ± 0.8 kg/m3; viscosity ([2]; 323.15 K): 0.4805 ± 0.0086 mPa·s; mass density ([2]; 328.15 K): 835.9 ± 0.8 kg/m3; viscosity ([2]; 328.15 K): 0.4566 ± 0.0085 mPa·s; mass density ([2]; 333.15 K): 831.6 ± 0.9 kg/m3; viscosity ([2]; 333.15 K): 0.4371 ± 0.0083 mPa·s
Cc1ccccc1 [toluene]	857.5 ± 0.7	0.5253 ± 0.009	852.9 ± 0.8	0.4933 ± 0.0088	847.9 ± 0.8	0.4717 ± 0.0086	843.5 ± 0.8	0.4491 ± 0.0085	838.7 ± 0.8	0.4244 ± 0.0083	834 ± 0.9	0.4082 ± 0.0082	829.1 ± 0.9	0.3835 ± 0.008							
Cc1ccccc1 [toluene] + CC1=CC(=O)c2ccccc2C1=O															857.5 ± 0.7	0.5253 ± 0.009	852.9 ± 0.8	0.4933 ± 0.0088	847.9 ± 0.8	0.4717 ± 0.0086	mass density ([2]; 318.15 K): 843.5 ± 0.8 kg/m3; viscosity ([2]; 318.15 K): 0.4491 ± 0.0085 mPa·s; mass density ([2]; 323.15 K): 838.7 ± 0.8 kg/m3; viscosity ([2]; 323.15 K): 0.4244 ± 0.0083 mPa·s; mass density ([2]; 328.15 K): 834 ± 0.9 kg/m3; viscosity ([2]; 328.15 K): 0.4082 ± 0.0082 mPa·s; mass density ([2]; 333.15 K): 829.1 ± 0.9 kg/m3; viscosity ([2]; 333.15 K): 0.3835 ± 0.008 mPa·s
